Literature values in EP0970199B1, “FLUORESCENT PROTEIN SENSORS FOR DETECTION OF ANALYTES” (The Regents of the University of California, priority 1997, dated 1998).

Conditions: fluorescein in 0.1 N NaOH; 9-aminoacridine in water

Nc1c2ccccc2nc2ccccc12 [9-aminoacridine]
quantum yield of standard: 0.98
